# Tests used:
# Test in all cases: Kinase selectivity panel
# Format in all cases: biochemical
# Conditions in all cases: read-out: Inhibition(%) @ 1 µM RK-019
# [1] = molecular target: T1, AMPKα2(h) (Homo sapiens, UniProt P54646)
# T1 construct: purchased Eurofins Discovery Services (KinaseProfiler)
# How it was run: (§1)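 The compound is tested at a fixed 1 µM in an in vitro binding assay based on competition at the ATP site of recombinant human kinase. Inhibition ratio is reported.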
# [2] = molecular target: T2, SIK(h) (Homo sapiens, UniProt P57059)
# T2 construct: purchased Eurofins Discovery Services (KinaseProfiler)
# How it was run: as §1
# [3] = molecular target: T3, NEK9(h) (Homo sapiens, UniProt Q8TD19)
# T3 construct: purchased Eurofins Discovery Services (KinaseProfiler)
# How it was run: as §1
# [4] = molecular target: T4, TSSK3(h) (Homo sapiens, UniProt Q96PN8)
# T4 construct: purchased Eurofins Discovery Services (KinaseProfiler)
# How it was run: as §1
# [5] = molecular target: T5, CK1γ1(h) (Homo sapiens, UniProt Q9HCP0)
# T5 construct: purchased Eurofins Discovery Services (KinaseProfiler)
# How it was run: as §1
# [6] = molecular target: T6, B-Raf(h) (Homo sapiens, UniProt P15056)
# T6 construct: purchased Eurofins Discovery Services (KinaseProfiler)
# How it was run: as §1
# [7] = molecular target: T7, CaMKIγ(h) (Homo sapiens, UniProt Q96NX5)
# T7 construct: purchased Eurofins Discovery Services (KinaseProfiler)
# How it was run: as §1
# [8] = molecular target: T8, CDK2/cyclinE(h) (Homo sapiens, UniProt P24941)
# T8 construct: purchased Eurofins Discovery Services (KinaseProfiler)
# How it was run: as §1
# [9] = molecular target: T9, PTK5(h) (Homo sapiens, UniProt P42685)
# T9 construct: purchased Eurofins Discovery Services (KinaseProfiler)
# How it was run: as §1
# [10] = molecular target: T10, Rsk1(h) (Homo sapiens, UniProt Q15418)
# T10 construct: purchased Eurofins Discovery Services (KinaseProfiler)
# How it was run: as §1
# [11] = molecular target: T11, BTK(h) (Homo sapiens, UniProt Q06187)
# T11 construct: purchased Eurofins Discovery Services (KinaseProfiler)
# How it was run: as §1
# [12] = molecular target: T12, TLK1(h) (Homo sapiens, UniProt Q9UKI8)
# T12 construct: purchased Eurofins Discovery Services (KinaseProfiler)
# How it was run: as §1
# [13] = molecular target: T13, EphA8(h) (Homo sapiens, UniProt P29322)
# T13 construct: purchased Eurofins Discovery Services (KinaseProfiler)
# How it was run: as §1
# [14] = molecular target: T14, DRAK1(h) (Homo sapiens, UniProt Q9UEE5)
# T14 construct: purchased Eurofins Discovery Services (KinaseProfiler)
# How it was run: as §1
# [15] = molecular target: T15, FGFR1(V561M)(h) (Homo sapiens, UniProt P11362, V561M)
# T15 construct: purchased Eurofins Discovery Services (KinaseProfiler)
# How it was run: as §1
# [16] = molecular target: T16, Fer(h) (Homo sapiens, UniProt P16591)
# T16 construct: purchased Eurofins Discovery Services (KinaseProfiler)
# How it was run: as §1
# [17] = molecular target: T17, IRAK1(h) (Homo sapiens, UniProt P51617)
# T17 construct: purchased Eurofins Discovery Services (KinaseProfiler)
# How it was run: as §1
# [18] = molecular target: T18, MAK(h) (Homo sapiens, UniProt P20794)
# T18 construct: purchased Eurofins Discovery Services (KinaseProfiler)
# How it was run: as §1
# [19] = molecular target: T19, cKit(D816V)(h) (Homo sapiens, UniProt P10721, D816V)
# T19 construct: purchased Eurofins Discovery Services (KinaseProfiler)
# How it was run: as §1
# [20] = molecular target: T20, Bmx(h) (Homo sapiens, UniProt P51813)
# T20 construct: purchased Eurofins Discovery Services (KinaseProfiler)
# How it was run: as §1
# [21] = molecular target: T21, DNA-PK(h) (Homo sapiens, UniProt P78527)
# T21 construct: purchased Eurofins Discovery Services (KinaseProfiler)
# How it was run: as §1
# [22] = molecular target: T22, Aurora-B(h) (Homo sapiens, UniProt Q96GD4)
# T22 construct: purchased Eurofins Discovery Services (KinaseProfiler)
# How it was run: as §1
# [23] = molecular target: T23, EphB3(h) (Homo sapiens, UniProt P54753)
# T23 construct: purchased Eurofins Discovery Services (KinaseProfiler)
# How it was run: as §1
# [24] = molecular target: T24, PI3 Kinase (p120g)(h) (Homo sapiens, UniProt P48736)
# T24 construct: purchased Eurofins Discovery Services (KinaseProfiler)
# How it was run: as §1
# [25] = molecular target: T25, MKK3(h) (Homo sapiens, UniProt P46734)
# T25 construct: purchased Eurofins Discovery Services (KinaseProfiler)
# How it was run: as §1
# [26] = molecular target: T26, c-RAF(h) (Homo sapiens, UniProt P04049)
# T26 construct: purchased Eurofins Discovery Services (KinaseProfiler)
# How it was run: as §1
# [27] = molecular target: T27, SGK(h) (Homo sapiens, UniProt O00141)
# T27 construct: purchased Eurofins Discovery Services (KinaseProfiler)
# How it was run: as §1
# [28] = molecular target: T28, EphB1(h) (Homo sapiens, UniProt P54762)
# T28 construct: purchased Eurofins Discovery Services (KinaseProfiler)
# How it was run: as §1
# [29] = molecular target: T29, Met(D1246H)(h) (Homo sapiens, UniProt P08581, D1228H)
# T29 construct: purchased Eurofins Discovery Services (KinaseProfiler)
# How it was run: as §1
# [30] = molecular target: T30, BIKe(h) (Homo sapiens, UniProt Q9NSY1)
# T30 construct: purchased Eurofins Discovery Services (KinaseProfiler)
# How it was run: as §1
# [31] = molecular target: T31, SAPK2b(h) (Homo sapiens, UniProt Q15759)
# T31 construct: purchased Eurofins Discovery Services (KinaseProfiler)
# How it was run: as §1
# [32] = molecular target: T32, NIM1(h) (Homo sapiens, UniProt Q8IY84)
# T32 construct: purchased Eurofins Discovery Services (KinaseProfiler)
# How it was run: as §1
# [33] = molecular target: T33, PI3 Kinase (p110a/p85a)(h) (Homo sapiens, UniProt P42336)
# T33 construct: purchased Eurofins Discovery Services (KinaseProfiler)
# How it was run: as §1
# [34] = molecular target: T34, Txk(h) (Homo sapiens, UniProt P42681)
# T34 construct: purchased Eurofins Discovery Services (KinaseProfiler)
# How it was run: as §1
# [35] = molecular target: T35, MSK1(h) (Homo sapiens, UniProt O75582)
# T35 construct: purchased Eurofins Discovery Services (KinaseProfiler)
# How it was run: as §1
# [36] = molecular target: T36, Rsk3(h) (Homo sapiens, UniProt Q15349)
# T36 construct: purchased Eurofins Discovery Services (KinaseProfiler)
# How it was run: as §1
# [37] = molecular target: T37, MKK4(m) (Mus musculus, UniProt P47809)
# T37 construct: purchased Eurofins Discovery Services (KinaseProfiler)
# T30 sequence (Q9NSY1 whole entry): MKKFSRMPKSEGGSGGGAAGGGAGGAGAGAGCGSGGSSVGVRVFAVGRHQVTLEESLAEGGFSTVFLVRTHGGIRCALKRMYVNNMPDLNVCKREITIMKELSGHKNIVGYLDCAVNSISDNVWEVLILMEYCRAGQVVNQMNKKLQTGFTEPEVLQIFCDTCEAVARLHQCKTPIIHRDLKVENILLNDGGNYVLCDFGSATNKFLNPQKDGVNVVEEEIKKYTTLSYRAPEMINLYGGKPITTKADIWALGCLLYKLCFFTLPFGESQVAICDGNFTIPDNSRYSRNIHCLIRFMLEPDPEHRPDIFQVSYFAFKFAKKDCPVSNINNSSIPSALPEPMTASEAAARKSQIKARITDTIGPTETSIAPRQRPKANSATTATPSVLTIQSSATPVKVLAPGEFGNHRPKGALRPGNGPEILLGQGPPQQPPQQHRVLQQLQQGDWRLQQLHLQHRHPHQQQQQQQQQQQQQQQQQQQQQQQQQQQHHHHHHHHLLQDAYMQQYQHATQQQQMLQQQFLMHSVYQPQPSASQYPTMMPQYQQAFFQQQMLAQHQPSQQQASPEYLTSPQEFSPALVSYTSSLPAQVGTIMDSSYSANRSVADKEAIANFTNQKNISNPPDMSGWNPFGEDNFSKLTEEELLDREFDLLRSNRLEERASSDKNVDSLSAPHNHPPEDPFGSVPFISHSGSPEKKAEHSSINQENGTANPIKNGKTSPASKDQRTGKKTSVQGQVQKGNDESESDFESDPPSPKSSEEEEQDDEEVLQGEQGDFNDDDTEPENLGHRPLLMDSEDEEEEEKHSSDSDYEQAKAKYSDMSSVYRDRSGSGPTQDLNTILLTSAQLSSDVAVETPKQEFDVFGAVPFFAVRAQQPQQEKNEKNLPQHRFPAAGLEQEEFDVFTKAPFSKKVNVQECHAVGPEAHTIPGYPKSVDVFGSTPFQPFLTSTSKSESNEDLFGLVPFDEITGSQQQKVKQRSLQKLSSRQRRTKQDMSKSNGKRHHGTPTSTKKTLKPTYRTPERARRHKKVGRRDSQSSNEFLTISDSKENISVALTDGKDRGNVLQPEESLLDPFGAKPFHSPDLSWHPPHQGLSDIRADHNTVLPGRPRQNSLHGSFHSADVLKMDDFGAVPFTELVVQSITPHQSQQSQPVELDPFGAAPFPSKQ
# T24 sequence (P48736 whole entry): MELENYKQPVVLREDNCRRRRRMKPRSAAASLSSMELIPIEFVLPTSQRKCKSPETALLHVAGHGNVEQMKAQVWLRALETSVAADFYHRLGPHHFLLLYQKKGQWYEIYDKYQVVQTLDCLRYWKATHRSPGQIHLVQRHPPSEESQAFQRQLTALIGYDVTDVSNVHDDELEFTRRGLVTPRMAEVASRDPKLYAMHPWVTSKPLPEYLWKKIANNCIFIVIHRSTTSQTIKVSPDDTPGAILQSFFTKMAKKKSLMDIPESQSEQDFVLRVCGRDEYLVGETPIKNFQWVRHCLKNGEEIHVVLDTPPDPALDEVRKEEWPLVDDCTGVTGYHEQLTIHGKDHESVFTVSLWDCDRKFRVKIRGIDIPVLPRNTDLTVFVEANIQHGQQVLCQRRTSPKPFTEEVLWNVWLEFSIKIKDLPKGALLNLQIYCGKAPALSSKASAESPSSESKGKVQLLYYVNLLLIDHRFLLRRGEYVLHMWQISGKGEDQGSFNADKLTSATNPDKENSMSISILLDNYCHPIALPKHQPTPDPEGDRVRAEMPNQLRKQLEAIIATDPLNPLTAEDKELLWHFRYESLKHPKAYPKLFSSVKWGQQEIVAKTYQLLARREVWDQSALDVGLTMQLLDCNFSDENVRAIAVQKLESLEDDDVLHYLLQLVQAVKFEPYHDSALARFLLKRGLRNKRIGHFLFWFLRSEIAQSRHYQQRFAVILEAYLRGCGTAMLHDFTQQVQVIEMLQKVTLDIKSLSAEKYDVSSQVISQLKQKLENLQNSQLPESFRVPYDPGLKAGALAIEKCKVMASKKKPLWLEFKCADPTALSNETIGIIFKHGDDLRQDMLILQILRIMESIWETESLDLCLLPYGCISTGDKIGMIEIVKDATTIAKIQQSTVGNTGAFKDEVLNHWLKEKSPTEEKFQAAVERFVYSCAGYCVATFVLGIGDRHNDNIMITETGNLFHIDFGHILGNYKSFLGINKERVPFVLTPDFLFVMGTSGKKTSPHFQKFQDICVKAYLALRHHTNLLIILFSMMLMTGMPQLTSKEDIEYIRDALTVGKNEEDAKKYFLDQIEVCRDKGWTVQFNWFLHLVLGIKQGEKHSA
# T17 sequence (P51617 whole entry): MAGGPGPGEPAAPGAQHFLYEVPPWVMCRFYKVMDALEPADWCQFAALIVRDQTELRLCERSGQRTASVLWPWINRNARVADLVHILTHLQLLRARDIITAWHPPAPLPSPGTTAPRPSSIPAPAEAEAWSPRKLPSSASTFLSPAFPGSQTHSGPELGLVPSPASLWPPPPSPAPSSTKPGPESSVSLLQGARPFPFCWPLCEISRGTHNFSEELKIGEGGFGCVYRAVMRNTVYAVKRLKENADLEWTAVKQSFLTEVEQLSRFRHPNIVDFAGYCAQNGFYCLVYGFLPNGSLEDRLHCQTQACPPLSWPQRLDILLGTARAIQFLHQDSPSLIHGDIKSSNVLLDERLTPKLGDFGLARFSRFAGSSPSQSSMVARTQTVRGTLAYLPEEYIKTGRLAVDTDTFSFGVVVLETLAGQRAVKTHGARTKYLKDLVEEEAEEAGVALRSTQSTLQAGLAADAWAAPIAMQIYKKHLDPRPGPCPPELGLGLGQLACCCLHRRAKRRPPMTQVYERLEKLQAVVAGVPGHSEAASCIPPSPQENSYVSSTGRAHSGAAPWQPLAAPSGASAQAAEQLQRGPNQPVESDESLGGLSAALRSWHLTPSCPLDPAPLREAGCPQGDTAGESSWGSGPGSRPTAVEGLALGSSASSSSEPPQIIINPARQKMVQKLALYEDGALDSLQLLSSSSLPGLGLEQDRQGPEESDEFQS
# T33 sequence (P42336 whole entry): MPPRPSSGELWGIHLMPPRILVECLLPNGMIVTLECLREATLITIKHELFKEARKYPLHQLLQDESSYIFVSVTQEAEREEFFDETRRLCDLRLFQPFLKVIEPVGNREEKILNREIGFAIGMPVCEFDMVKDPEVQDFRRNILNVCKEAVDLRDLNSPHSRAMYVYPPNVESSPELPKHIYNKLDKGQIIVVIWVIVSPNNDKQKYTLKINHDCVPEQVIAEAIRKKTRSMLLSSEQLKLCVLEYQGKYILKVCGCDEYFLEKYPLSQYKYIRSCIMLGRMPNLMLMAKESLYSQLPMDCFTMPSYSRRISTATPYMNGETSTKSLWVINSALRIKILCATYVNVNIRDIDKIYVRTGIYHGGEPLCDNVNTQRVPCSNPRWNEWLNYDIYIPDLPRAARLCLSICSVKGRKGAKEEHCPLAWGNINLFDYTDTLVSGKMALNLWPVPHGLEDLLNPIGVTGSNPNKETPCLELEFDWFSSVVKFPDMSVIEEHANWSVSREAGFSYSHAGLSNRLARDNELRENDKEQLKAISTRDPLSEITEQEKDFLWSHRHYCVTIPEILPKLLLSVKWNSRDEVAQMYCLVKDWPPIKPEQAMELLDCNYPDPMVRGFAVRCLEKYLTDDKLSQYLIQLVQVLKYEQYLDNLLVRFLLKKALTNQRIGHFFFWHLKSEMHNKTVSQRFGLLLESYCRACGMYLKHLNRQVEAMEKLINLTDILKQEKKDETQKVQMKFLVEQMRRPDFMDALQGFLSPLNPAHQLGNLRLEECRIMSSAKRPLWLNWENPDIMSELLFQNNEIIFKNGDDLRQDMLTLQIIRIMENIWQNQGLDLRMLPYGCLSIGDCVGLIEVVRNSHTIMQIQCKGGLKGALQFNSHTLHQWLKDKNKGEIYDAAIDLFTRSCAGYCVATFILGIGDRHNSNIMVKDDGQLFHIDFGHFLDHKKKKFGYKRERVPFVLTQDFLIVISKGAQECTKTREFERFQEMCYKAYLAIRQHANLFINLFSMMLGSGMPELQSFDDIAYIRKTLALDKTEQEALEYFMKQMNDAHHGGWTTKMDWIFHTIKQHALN
# T33 sequence (P27986 whole entry partner): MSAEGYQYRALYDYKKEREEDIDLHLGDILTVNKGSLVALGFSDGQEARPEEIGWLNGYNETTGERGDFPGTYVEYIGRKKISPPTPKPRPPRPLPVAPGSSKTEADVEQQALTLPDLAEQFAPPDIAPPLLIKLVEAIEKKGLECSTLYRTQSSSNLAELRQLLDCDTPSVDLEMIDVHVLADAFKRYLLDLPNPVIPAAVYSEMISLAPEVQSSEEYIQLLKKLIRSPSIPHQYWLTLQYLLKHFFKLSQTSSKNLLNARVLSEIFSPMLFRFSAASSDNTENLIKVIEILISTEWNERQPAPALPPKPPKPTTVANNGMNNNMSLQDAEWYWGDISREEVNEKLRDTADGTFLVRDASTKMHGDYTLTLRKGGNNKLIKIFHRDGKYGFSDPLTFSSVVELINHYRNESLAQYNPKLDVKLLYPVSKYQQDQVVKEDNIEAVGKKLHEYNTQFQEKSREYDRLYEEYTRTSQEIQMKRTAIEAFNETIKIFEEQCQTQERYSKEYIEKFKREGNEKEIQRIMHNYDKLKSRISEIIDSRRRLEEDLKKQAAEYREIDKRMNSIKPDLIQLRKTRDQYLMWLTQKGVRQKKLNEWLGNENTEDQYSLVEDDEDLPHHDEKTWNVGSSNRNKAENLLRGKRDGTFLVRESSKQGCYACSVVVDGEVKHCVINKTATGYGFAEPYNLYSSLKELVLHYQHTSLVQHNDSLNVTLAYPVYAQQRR
# T4 sequence (Q96PN8 whole entry): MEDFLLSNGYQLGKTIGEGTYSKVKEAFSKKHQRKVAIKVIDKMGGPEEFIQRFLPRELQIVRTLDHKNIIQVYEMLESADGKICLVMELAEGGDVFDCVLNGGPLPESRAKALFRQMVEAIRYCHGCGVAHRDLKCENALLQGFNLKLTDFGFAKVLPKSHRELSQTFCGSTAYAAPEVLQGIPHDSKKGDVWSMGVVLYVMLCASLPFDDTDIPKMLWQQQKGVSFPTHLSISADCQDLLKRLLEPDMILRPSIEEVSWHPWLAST
structure (smiles),measurement,setting,value
"COc1cc(OC)cc(N(CCN[C@H](C)CO)c2ccc3ncc(-c4cnn(C)c4)c(=O)n3c2)c1 [RK-019, (R)-7-((3,5-dimethoxyphenyl) (2-((1-hydroxypropan-2-yl)amino)ethyl)amino)-3-(1-methyl-1H-pyrazol-4-yl)-4H-pyrido [1,2-a]pyrimidin-4-one]",activity at 1 µM,[1],109%
same,activity at 1 µM,[2],89%
same,activity at 1 µM,[3],91%
same,activity at 1 µM,[4],102%
same,activity at 1 µM,[5],92%
same,activity at 1 µM,[6],124%
same,activity at 1 µM,[7],93%
same,activity at 1 µM,[8],123%
same,activity at 1 µM,[9],107%
same,activity at 1 µM,[10],120%
same,activity at 1 µM,[11],72%
same,activity at 1 µM,[12],98%
same,activity at 1 µM,[13],59%
same,activity at 1 µM,[14],95%
same,activity at 1 µM,[15],70%
same,activity at 1 µM,[16],127%
same,activity at 1 µM,[17],103%
same,activity at 1 µM,[18],110%
same,activity at 1 µM,[19],93%
same,activity at 1 µM,[20],64%
same,activity at 1 µM,[21],101%
same,activity at 1 µM,[22],87%
same,activity at 1 µM,[23],89%
same,activity at 1 µM,[24],102%
same,activity at 1 µM,[25],96%
same,activity at 1 µM,[26],94%
same,activity at 1 µM,[27],104%
same,activity at 1 µM,[28],58%
same,activity at 1 µM,[29],89%
same,activity at 1 µM,[30],93%
same,activity at 1 µM,[31],94%
same,activity at 1 µM,[32],103%
same,activity at 1 µM,[33],101%
same,activity at 1 µM,[34],106%
same,activity at 1 µM,[35],95%
same,activity at 1 µM,[36],100%
same,activity at 1 µM,[37],107%
